Reference: patent US20240050428A1 (Cullgen (Shanghai), Inc., priority 2020, published 2024)
Read-outs that look alike come from different tables or passages of the source.

Key:
MOLM-13 cells = test: Cell viability assay (CellTiter-Glo) in MOLM-13 cells, alone or with gilteritinib; assay type: cell-based; details: Homo sapiens, MOLM-13, 72 h, MOLM-13 cells, three days, CellTiter-Glo
MV4;11 cells = test: Cell viability assay (CellTiter-Glo) in MV4;11 cells, alone or with gilteritinib; assay type: cell-based; details: Homo sapiens, MV4-11, 72 h, MV4;11 cells, three days, CellTiter-Glo, read-out: MV4
[1] = compound alone (without gilteritinib), read-out: MOLM-13 IC50
[2] = compound with gilteritinib 20 nM, read-out: MOLM-13 IC50 gilteritinib
[3] = compound alone (without gilteritinib), 11 IC50
[4] = compound with gilteritinib 10 nM, 11 IC50 gilteritinib

IC50 (MOLM-13 cells; [1]) [µM]	IC50 (MOLM-13 cells; [2]) [µM]	IC50 (MV4;11 cells; [3]) [µM]	IC50 (MV4;11 cells; [4]) [µM]	SMILES
> 1	> 1	> 1	> 1	O=C1CCC(N2C(=O)c3ccc(CNC4CC(n5cc(-c6cnc7ccccc7n6)c(C6CC6)n5)C4)cc3C2=O)C(=O)N1 (stereo not shown) [GS-461, 5-(((3-(3-cyclopropyl-4-(quinoxalin-2-yl)-1H-pyrazol-1-yl)cyclobutyl)amino)methyl)-2-(2,6-dioxopiperidin-3-yl)isoindoline-1,3-dione]
0.1 to 1	0.01 to 0.1	0.1 to 1	0.01 to 0.1	COc1ccc(-c2cnn([C@H]3C[C@H](CCCNc4ccc5c(c4)C(=O)N(C4CCC(=O)NC4=O)C5=O)C3)c2)nc1 (stereo partly drawn) [GS-462, 2-(2,6-dioxopiperidin-3-yl)-5-((3-(trans-3-(4-(5-methoxypyridin-2-yl)-1H-pyrazol-1-yl)cyclobutyl)propyl)amino)isoindoline-1,3-dione]
0.01 to 0.1	< 0.01	0.01 to 0.1	< 0.01	CN1CCN(c2ccc3ncc(-c4cn([C@H]5C[C@H](CNc6ccc7c(c6)C(=O)N(C6CCC(=O)NC6=O)C7=O)C5)nc4C4CC4)nc3c2)CC1 (stereo partly drawn) [GS-463, 5-(((trans-3-(3-cyclopropyl-4-(7-(4-methylpiperazin-1-yl)quinoxalin-2-yl)-1H-pyrazol-1-yl)cyclobutyl)methyl)amino)-2-(2,6-dioxopiperidin-3-yl)isoindoline-1,3-dione]
< 0.01	< 0.01	< 0.01	< 0.01	O=C1CCC(N2C(=O)c3ccc(NC[C@H]4C[C@H](n5cc(-c6cnc7ccc(N8CCOCC8)cc7n6)c(C6CC6)n5)C4)cc3C2=O)C(=O)N1 (stereo partly drawn) [GS-464, 5-(((trans-3-(3-cyclopropyl-4-(7-morpholinoquinoxalin-2-yl)-1H-pyrazol-1-yl)cyclobutyl)methyl)amino)-2-(2,6-dioxopiperidin-3-yl)isoindoline-1,3-dione]
> 1	0.01 to 0.1	> 1	0.1 to 1	Cn1cccc(-c2cn([C@H]3C[C@H](CNc4ccc5c(c4)C(=O)N(C4CCC(=O)NC4=O)C5=O)C3)nc2C2CC2)c1=O (stereo partly drawn) [GS-465, 5-(((trans-3-(3-cyclopropyl-4-(1-methyl-2-oxo-1,2-dihydropyridin-3-yl)-1H-pyrazol-1-yl)cyclobutyl)methyl)amino)-2-(2,6-dioxopiperidin-3-yl)isoindoline-1,3-dione]
0.1 to 1	0.01 to 0.1	0.01 to 0.1	0.01 to 0.1	O=C1CCC(N2C(=O)c3ccc(NC[C@H]4C[C@H](n5cc(-c6cccc(C7CC7)n6)c(C6CC6)n5)C4)cc3C2=O)C(=O)N1 (stereo partly drawn) [GS-466, 5-(((trans-3-(3-cyclopropyl-4-(6-cyclopropylpyridin-2-yl)-1H-pyrazol-1-yl)cyclobutyl)methyl)amino)-2-(2,6-dioxopiperidin-3-yl)isoindoline-1,3-dione]
0.01 to 0.1	0.01 to 0.1	0.01 to 0.1	< 0.01	O=C1CCC(N2C(=O)c3ccc(NC[C@H]4C[C@H](n5cc(-c6ncccc6C6CC6)c(C6CC6)n5)C4)cc3C2=O)C(=O)N1 (stereo partly drawn) [GS-467, 5-(((trans-3-(3-cyclopropyl-4-(3-cyclopropylpyridin-2-yl)-1H-pyrazol-1-yl)cyclobutyl)methyl)amino)-2-(2,6-dioxopiperidin-3-yl)isoindoline-1,3-dione]
0.1 to 1	0.01 to 0.1	0.01 to 0.1	0.01 to 0.1	O=C1CCC(N2C(=O)c3ccc(NC[C@H]4C[C@H](n5cc(C6CCCCC6)c(C6CC6)n5)C4)cc3C2=O)C(=O)N1 (stereo partly drawn) [GS-468, 5-(((trans-3-(4-cyclohexyl-3-cyclopropyl-1H-pyrazol-1-yl)cyclobutyl)methyl)amino)-2-(2,6-dioxopiperidin-3-yl)isoindoline-1,3-dione]
> 1	> 1	> 1	> 1	O=C1CCC(N2C(=O)c3ccc(CCN4CC(n5cc(-c6cnc7ccccc7n6)c(C6CC6)n5)C4)cc3C2=O)C(=O)N1 (stereo not shown) [GS-469, 5-(2-(3-(3-cyclopropyl-4-(quinoxalin-2-yl)-1H-pyrazol-1-yl)azetidin-1-yl)ethyl)-2-(2,6-dioxopiperidin-3-yl)isoindoline-1,3-dione]
0.01 to 0.1	< 0.01	0.01 to 0.1	< 0.01	O=C1CCC(N2C(=O)c3ccc(NC[C@H]4C[C@H](n5nc(C6CC6)c6cccnc65)C4)cc3C2=O)C(=O)N1 (stereo partly drawn) [GS-470, 5-(((trans-3-(3-cyclopropyl-1H-pyrazolo[3,4-b]pyridin-1-yl)cyclobutyl)methyl)amino)-2-(2,6-dioxopiperidin-3-yl)isoindoline-1,3-dione]
0.1 to 1	0.01 to 0.1	0.01 to 0.1	0.01 to 0.1	O=C1CCC(N2C(=O)c3ccc(NC[C@H]4C[C@H](n5cc(-c6cccc(OC7CC7)n6)c(C6CC6)n5)C4)cc3C2=O)C(=O)N1 (stereo partly drawn) [GS-471, 5-(((trans-3-(4-(6-cyclopropoxypyridin-2-yl)-3-cyclopropyl-1H-pyrazol-1-yl)cyclobutyl)methyl)amino)-2-(2,6-dioxopiperidin-3-yl)isoindoline-1,3-dione]
> 1	> 1	> 1	> 1	CN1CCCC(c2cn([C@H]3C[C@H](CNc4ccc5c(c4)C(=O)N(C4CCC(=O)NC4=O)C5=O)C3)nc2C2CC2)C1 (stereo partly drawn) [GS-472, 5-(((trans-3-(3-cyclopropyl-4-(1-methylpiperidin-3-yl)-1H-pyrazol-1-yl)cyclobutyl)methyl)amino)-2-(2,6-dioxopiperidin-3-yl)isoindoline-1,3-dione]
> 1	> 1	> 1	> 1	O=C1CCC(N2C(=O)c3ccc(NC[C@H]4C[C@H](n5nc(C6CC6)c6ccncc65)C4)cc3C2=O)C(=O)N1 (stereo partly drawn) [GS-473, 5-(((trans-3-(3-cyclopropyl-1H-pyrazolo[3,4-c]pyridin-1-yl)cyclobutyl)methyl)amino)-2-(2,6-dioxopiperidin-3-yl)isoindoline-1,3-dione]
> 1	> 1	> 1	> 1	O=C1CCC(N2C(=O)c3ccc(NC[C@H]4C[C@H](n5nc(C6CC6)c6cnccc65)C4)cc3C2=O)C(=O)N1 (stereo partly drawn) [GS-474, 5-(((trans-3-(3-cyclopropyl-1H-pyrazolo[4,3-c]pyridin-1-yl)cyclobutyl)methyl)amino)-2-(2,6-dioxopiperidin-3-yl)isoindoline-1,3-dione]
> 1	> 1	> 1	> 1	O=C1CCC(N2C(=O)c3ccc(NC[C@H]4C[C@H](n5nc(C6CC6)c6ncccc65)C4)cc3C2=O)C(=O)N1 (stereo partly drawn) [GS-475, 5-(((trans-3-(3-cyclopropyl-1H-pyrazolo[4,3-b]pyridin-1-yl)cyclobutyl)methyl)amino)-2-(2,6-dioxopiperidin-3-yl)isoindoline-1,3-dione]
< 0.01	< 0.01	< 0.01	< 0.01	O=C1CCC(N2Cc3cc(CNC(=O)c4cccc(N5CCC(n6cc(-c7cnc8ccccc8n7)cn6)CC5)c4)ccc3C2=O)C(=O)N1 (stereo not shown) [GS-476, N-((2-(2,6-dioxopiperidin-3-yl)-1-oxoisoindolin-5-yl)methyl)-3-(4-(4-(quinoxalin-2-yl)-1H-pyrazol-1-yl)piperidin-1-yl)benzamide]
0.1 to 1	< 0.01	0.01 to 0.1	< 0.01	O=C1CCC(N2C(=O)c3ccc(NCCCCCC(=O)N4CCC(n5cc(-c6cnc7cccc(C8=CCNCC8)c7n6)cn5)CC4)cc3C2=O)C(=O)N1 (stereo not shown) [GS-480, 2-(2,6-dioxopiperidin-3-yl)-5-((6-oxo-6-(4-(4-(8-(1,2,3,6-tetrahydropyridin-4-yl)quinoxalin-2-yl)-1H-pyrazol-1-yl)piperidin-1-yl)hexyl)amino)isoindoline-1,3-dione]
0.01 to 0.1	< 0.01	< 0.01	< 0.01	O=C1CCC(N2C(=O)c3ccc(NCCCCCC(=O)N4CCC(c5cnc6ccccc6c5)CC4)cc3C2=O)C(=O)N1 (stereo not shown) [GS-481, 2-(2,6-dioxopiperidin-3-yl)-5-((6-oxo-6-(4-(quinolin-3-yl)piperidin-1-yl)hexyl)amino)isoindoline-1,3-dione]
< 0.01	< 0.01	< 0.01	< 0.01	O=C(Cc1cccc(N2CCN(c3ccccn3)CC2)c1)NCc1ccc2c(c1)CN(C1CCC(=O)NC1=O)C2=O (stereo not shown) [GS-483, N-((2-(2,6-dioxopiperidin-3-yl)-1-oxoisoindolin-5-yl)methyl)-2-(3-(4-(pyridin-2-yl)piperazin-1-yl)phenyl)acetamide]
0.1 to 1	0.1 to 1	> 1	0.1 to 1	O=C1CCC(N2Cc3cc(OCCCCC(=O)N4CCC(n5cc(-c6cnc7ccccc7n6)cn5)CC4)ccc3C2=O)C(=O)N1 (stereo not shown) [GS-484, 3-(1-oxo-5-((5-oxo-5-(4-(4-(quinoxalin-2-yl)-1H-pyrazol-1-yl)piperidin-1-yl)pentyl)oxy)isoindolin-2-yl)piperidine-2,6-dione]
> 1	> 1	> 1	> 1	O=C1CCC(N2Cc3cc(OCCC(=O)N4CCC(n5cc(-c6cnc7ccccc7n6)cn5)CC4)ccc3C2=O)C(=O)N1 (stereo not shown) [GS-485, 3-(1-oxo-5-(3-oxo-3-(4-(4-(quinoxalin-2-yl)-1H-pyrazol-1-yl)piperidin-1-yl)propoxy)isoindolin-2-yl)piperidine-2,6-dione]
> 1	> 1	> 1	> 1	O=C1CCC(N2Cc3cc(OCCCN4CCC(n5cc(-c6cnc7ccccc7n6)cn5)CC4)ccc3C2=O)C(=O)N1 (stereo not shown) [GS-492, 3-(1-oxo-5-(3-(4-(4-(quinoxalin-2-yl)-1H-pyrazol-1-yl)piperidin-1-yl)propoxy)isoindolin-2-yl)piperidine-2,6-dione]
